A value given as a limit tells only on which side of the number the result lay.

The target of series [1] is T1, Recombinant human farnesyl transferase (FTase) (Homo sapiens, UniProt P49356).
T1 construct: purchased Crelux (Martinsried, Germany)
As to the kind of experiment: FTase fluorescence assay (farnesylation of dansyl-GCVLS peptide). The conditions noted are these: recombinant human FTase 2.5 nM, Dansyl-GCVLS 85 nM, FPP 30 nM, 30° C., 50 minutes. The format is biochemical.

Series [2] can be described thus: Metabolic stability in human liver microsomes. The conditions noted are these: human liver microsomes 0.5 mg protein/mL, test compound 1 μM, 37° C.; read-out: T1/2 in HLM. The format is in vitro ADME. The protocol: (§1) The metabolic stability of the compounds disclosed herein was determined by measuring half-life (T1/2) of the compounds in the presence of mouse liver microsomes (MLM) or human liver microsomes (BILM).
(§2) Intermediate solution: 5 μL of compound and control stock solution (10 mM in dimethyl sulfoxide (DMSO)) were diluted with 495 μL of acetonitrile (ACN) (intermediate solution concentration: 100 μM, 99% ACN).
(§3) Working solution: 50 μL of compound and control intermediate solution (100 μM) were diluted with 450 μL of 100 mM potassium phosphate buffer (working solution concentration: 10 μM, 9.9% ACN).
(§4) Controls used in this assay: Testosterone, Diclofenac, and Propafenone.
(§5) Preparation Procedure: The appropriate amount of NADPH powder was weighed and diluted into a 10 mM MgCl2 solution (working solution concentration: 10 unit/mL; final concentration in reaction system: 1 unit/mL).
(§6) The appropriate concentrations of microsome working solutions were prepared in 100 mM potassium phosphate buffer.
(§7) Cold (4° C.) acetonitrile (CAN) containing 200 ng/mL tolbutamide and 200 ng/mL labetalol as internal standards (IS) was used as the stop solution.
(§8) Using an Apricot automation workstation, 10 μL/well of compound working solution were added to all 96-well reaction plates except the blank (T0, T5, T10, T20, T30, T60, and NCF60).
(§9) An Apricot automation workstation was used to add 80 μL/well of microsome solution to all reaction plates (Blank, T0, T5, T10, T20, T30, T60, and NCF60).
(§10) All reaction plates containing mixtures of compound and microsomes were pre-incubated at 37° C. for 10 minutes.
(§11) An Apricot automation workstation was used to add 10 μL/well of 100 mM potassium phosphate buffer to reaction plate NCF60.
(§12) Reaction plate NCF60 was incubated at 37° C. for 60 minutes.
(§13) After pre-incubation, an Apricot automation workstation was used to add 10 μL/well of NADPH regenerating system to every reaction plate except NCF60 (Blank, T0, T5, T10, T20, T30, and T60) to start the reaction. Final concentration of each component in incubation medium: Microsome (0.5 mg protein/mL); Test Compound (1 μM); Control Compound (1 μM); Acetonitrile (0.99%); DMSO (0.01%).
(§14) The reaction plates were incubated at 37° C. for 0 minute (T0, stop solution was added prior to microsome and NADPH solutions), 5 minutes (T5), 10 minutes (T10), 20 minutes (T20), 30 minutes (T30), 60 minutes (T60).
(§15) An Apricot automation workstation was used to add 300 μL/well of stop solution to each reaction plate at its appropriate end time point to terminate the reaction.
(§16) Each plate was sealed and shaken for 10 minutes.
(§17) After shaking, each plate was centrifuged at 4000 rpm and 4° C. for 20 minutes.
(§18) During centrifugation, an Apricot automation workstation was used to add 300 µL/well of HPLC grade water to eight new 96-well plates.
(§19) After centrifugation, an Apricot automation workstation was used to transfer 100 μL of supernatant from each reaction plate to its corresponding bioanaylsis plate.
(§20) Each bioanalysis plate was sealed and shaken for 10 minutes prior to LC-MS/MS analysis.
(§21) The equation of first order kinetics was used to calculate T1/2 and CLint(mic) (μL/min/mg).
A general note: Microsomes from liver hold many membrane-bound enzymes, among them those of drug oxidation.

In series [3] the test system is T24/83 cells. As to the kind of experiment: T24/83 cell proliferation assay (CellTiter-Glo). The format is cell-based. The conditions noted are these: Homo sapiens, 96 h, 4 days. The gist of the method:
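HRAS-mutant T24/83 bladder carcinoma cells seeded at 100 cells/well and grown with inhibitor for 4 days at 37 °C; 0.7% DMSO negative control, 100 μM tipifarnib positive control. Viability by CellTiter-Glo luminescence.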
A general note: Cellular ATP, detected with luciferase, serves as a proxy for viable cell number.

A short description of series [4]: Metabolic stability in mouse liver microsomes. Type of series: in vitro ADME. The following applies: CD-1 mouse liver microsomes 0.5 mg protein/mL, test compound 1 μM, 37° C.; read-out: T1/2 in MLM. The protocol:
as §1, §2, §3, §4, §5, §6, §7, §8, §9, §10, §11, §12, §13, §14, §15, §16, §17, §18, §19, §20, §21

Series [5] concerns the target T2, geranylgeranyl transferase type-1 (GGTase) (Homo sapiens, UniProt P53609).
T2 construct: purchased Crelux (Martinsried, Germany)
Nature of the series: GGTase fluorescence assay (dansyl-GCVLL peptide, GGPP). The format is biochemical. The following applies: GGTase 25 nM, Dansyl-GCVLL 10 μM, GGPP 10 μM, 30° C., 120 minutes. An excerpt: T24/83 cell line was purchased from the European Collection of Authenticated Cell Cultures (Salisbury, UK). Recombinant human farnesyl transferase (FTase) and geranylgeranyl transferase type-1 (GGTase) were obtained from Crelux (Martinsried, Germany). Dansyl labelled GCVLS peptide was purchased from Bachem (Torrance, CA), and Dansyl labelled GCVLL peptide was purchased from Bio Synthesis (Lewisville, TX). Farnesyl Pyrophosphate (FPP) and Geranylgeranyl pyrophosphate (GGPP) were purchased from Cayman (Ann Arbor, MI).
Geranylgeranyl transferase (GGTase) is a closely related enzyme to farnesyl transferase (FTase). The two enzymes share a common regulatory chain but have distinct individual enzymatic domains. GGTase catalyses the addition of an alternative prenylated side chain to some of the same proteins that may also be farnesylated. Thus, selective inhibitory activity against FTase relative to GGTase is a critical characteristic for FTase inhibitors.
The IC50 value of the compounds disclosed herein as inhibitors of Ftase and/or GGTase, was determined by measuring the concentration (provided in nM) necessary to achieve inhibition of enzyme activity by 50% (IC50). […] Compounds having a low IC50 value against FTase, for example an IC50 (FTase)<100 nM, such as an IC50 (FTase)<10 nM, are preferred. Compounds having a low IC50 value against FTase and a high IC50 value against GGTase, for example an IC50 (FTase)<100 nM, such as an IC50 (FTase)<10 nM, and an IC50 (GGTase)>100 nM, are potent and selective inhibitors of FTase, and are particularly preferred.
The inhibition activities of the compounds disclosed herein against Ftase and GGTase were measured in the respective fluorescence assays as follows:
For the GGTase assay, GGTase (25 nM), Dansyl labelled GCVLL peptide (10 μM), GGPP (10 μM) and inhibitor were mixed in assay buffer (50 mM Tris, pH 7.5, 10 mM magnesium chloride, 10 μM zinc chloride, 0.08% CHAPS, 5 mM dithiothreitol) and incubated in a total volume of 20 μL at 30° C. for 120 minutes.
For both the FTase assay and GGTase assay, fluorescence intensity was detected (excitation at 340 nm and emission at 486 nm) using EnVision (PerkinElmer; Waltham, MA), IC50 determinations were performed using a sigmoidal dose-response model with Xlfit software (IDBS, Inc.; Boston, MA), and tipifarnib was used as a positive control. All the assay plates for each assay passed the QC criteria (S/B, Z factor).

By IC50 is commonly meant the point on the concentration scale where inhibition reaches its midpoint. With `Cn1cncc1[C@@]1(O)c2ccc(C#N)c(c2)CCc2cccc(c2)-c2cc(=O)n(C)c3ccc1cc23` [(R)-6, (R)-3-hydroxy-2^1-methyl-3-(1-methyl-1H-imidazol-5-yl)-2^2-oxo-2^1,2^2-dihydro-2(4,6)-quinolina-1,4(1,3)-dibenzenacyclohexaphane-4^4-carbonitrile], the IC50 in series [1] was not above 10 nM; in series [3], not above 50 nM; in series [5] it was more than 1000 nM. Moreover, the half-life at 1 μM is less than 30 min in series [2] and 5 to 15 min in series [4].

As for `Cn1cncc1[C@@]1(N)c2ccc(C#N)c(c2)CCc2cccc(c2)-c2cc(=O)n(C)c3ccc1cc23` [(R)-7, (R)-3-amino-2^1-methyl-3-(1-methyl-1H-imidazol-5-yl)-2^2-oxo-2^1,2^2-dihydro-2(4,6)-quinolina-1,4(1,3)-dibenzenacyclohexaphane-4^4-carbonitrile], the figures for the IC50 in series [1], in series [3] and in series [5] were not above 10 nM, not above 50 nM and more than 1000 nM, respectively. For the same molecule, the values for the half-life at 1 μM in series [2] and in series [4] were less than 30 min and 5 to 15 min, respectively.

`[2H]C([2H])([2H])n1c(=O)cc2c3cc(ccc31)[C@@](N)(c1cncn1C)c1ccc(C#N)c(c1)CCc1cccc-2c1` [(R)-8, (R)-3-amino-2^1-(methyl-d3)-3-(1-methyl-1H-imidazol-5-yl)-2^2-oxo-2^1,2^2-dihydro-2(4,6)-quinolina-1,4(1,3)-dibenzenacyclohexaphane-4^4-carbonitrile]: the concentration for half-maximal inhibition (IC50) was not above 10 nM in series [1], not above 50 nM in series [3] and more than 1000 nM in series [5]. Further, the half-life at 1 μM in series [2] is less than 30 min; in series [4], 5 to 15 min.

Turning to `Cn1cncc1[C@@]1(O)c2ccc(Cl)c(c2)CCc2cccc(c2)-c2cc(=O)n(C)c3ccc1cc23` [(S)-3, (S)-4^4-chloro-3-hydroxy-2^1-methyl-3-(1-methyl-1H-imidazol-5-yl)-2^1,2^2-dihydro-2(4,6)-quinolina-1,4(1,3)-dibenzenacyclohexaphan-2^2-one], the IC50 in series [1] is not above 10 nM; in series [3], not above 50 nM; in series [5], more than 1000 nM. Further, the half-life at 1 μM in series [2] was less than 30 min; in series [4], 5 to 15 min.

Turning to `Cn1cncc1[C@@]1(N)c2ccc(Cl)c(c2)CCc2cccc(c2)-c2cc(=O)n(C)c3ccc1cc23` [(S)-4, (S)-3-amino-4^4-chloro-2^1-methyl-3-(1-methyl-1H-imidazol-5-yl)-2^1,2^2-dihydro-2(4,6)-quinolina-1,4(1,3)-dibenzenacyclohexaphan-2^2-one], the IC50 is not above 10 nM in series [1], not above 50 nM in series [3] and more than 1000 nM in series [5]. Moreover, the values for the half-life at 1 μM in series [2] and in series [4] were less than 30 min and less than 5 min, respectively.

On to `Cn1cncc1[C@@]1(O)c2ccc(Cl)c(c2)OCc2cccc(c2)-c2cc(=O)n(C)c3ccc1cc23` [(S)-14, (S)-4^4-chloro-3-hydroxy-2^1-methyl-3-(1-methyl-1H-imidazol-5-yl)-2^1,2^2-dihydro-5-oxa-2(4,6)-quinolina-1,4(1,3)-dibenzenacyclohexaphan-2^2-one], for which the IC50 in series [1] is not above 10 nM; in series [3], 50 to 500 nM; in series [5], more than 1000 nM. Besides, the half-life at 1 μM in series [2] is 30 to 100 min; in series [4], less than 5 min.

Consider `Cn1cncc1[C@@]1(N)c2ccc(C#N)c(c2)COc2cccc(c2)-c2cc(=O)n(C3CC3)c3ccc1cc23` [(S)-57, (S)-3-amino-2^1-cyclopropyl-3-(1-methyl-1H-imidazol-5-yl)-2^2-oxo-2^1,2^2-dihydro-6-oxa-2(4,6)-quinolina-1,4(1,3)-dibenzenacyclohexaphane-4^4-carbonitrile], for which the IC50 in series [1] was not above 10 nM; in series [3], not above 50 nM; in series [5], more than 1000 nM.

The values above are taken from US12018011B2, “Macrocyclic compounds and compositions, and methods of preparing and using the same” (Kura Oncology, Inc., priority 2021, dated 2024).
